In BindingDB's records for doi:10.1016/j.bmcl.2010.11.084 (Merck Frosst Centre For Therapeutic Research, 2011) one finds IC50 data, which are given here for eight molecules.

A short description of this assay: Antagonist activity at CRTH2 in human eosinophil assessed as effect of cellular shape change by EOS assay.

For the molecule `CN(C(=O)C1(c2ccc(F)cc2)CC1(C)C)[C@@H]1CCc2c(CC(=O)O)c3cccnc3n2C1` (stereo partly drawn) [2-((8R)-8-(1-(4-fluorophenyl)-N,2,2-trimethylcyclopropanecarboxamido)-6,7,8,9-tetrahydropyrido[3,2-b]indolizin-5-yl)acetic acid], the IC50 came out at 2.4 nM.
As for `C[C@@H](C(=O)N(C)[C@@H]1CCc2c(CC(=O)O)c3cccnc3n2C1)c1ccc(F)cc1` [2-((R)-8-((R)-2-(4-fluorophenyl)-N-methylpropanamido)-6,7,8,9-tetrahydropyrido[3,2-b]indolizin-5-yl)acetic acid], the figure is 1.2 nM.
As for `CN(C(=O)C1(c2ccc(F)cc2)CCC1)[C@@H]1CCc2c(CC(=O)O)c3cccnc3n2C1` [(R)-2-(8-(1-(4-fluorophenyl)-N-methylcyclobutanecarboxamido)-6,7,8,9-tetrahydropyrido[3,2-b]indolizin-5-yl)acetic acid], the figure is 1.2 nM.
As for `CN(C(=O)C1(c2ccc(F)cc2)CCCC1)[C@@H]1CCc2c(CC(=O)O)c3cccnc3n2C1` [(R)-2-(8-(1-(4-fluorophenyl)-N-methylcyclopentanecarboxamido)-6,7,8,9-tetrahydropyrido[3,2-b]indolizin-5-yl)acetic acid], the figure is 3.4 nM; as for `CN(C(=O)C1(c2ccc(F)cc2)CC1)[C@@H]1CCc2c(CC(=O)O)c3cccnc3n2C1` [(R)-2-(8-(1-(4-fluorophenyl)-N-methylcyclopropanecarboxamido)-6,7,8,9-tetrahydropyrido[3,2-b]indolizin-5-yl)acetic acid], 3.1 nM; as for `CN(C(=O)C(C)(C)c1ccc(F)cc1)[C@@H]1CCc2c(CC(=O)O)c3cccnc3n2C1` [(R)-2-(8-(2-(4-fluorophenyl)-N,2-dimethylpropanamido)-6,7,8,9-tetrahydropyrido[3,2-b]indolizin-5-yl)acetic acid], 2.3 nM.
As for `CN([C@@H]1CCc2c(CC(=O)O)c3ccc(-c4ccc(F)cc4)nc3n2C1)S(=O)(=O)c1ccc(F)cc1` [(R)-2-(8-(4-fluoro-N-methylphenylsulfonamido)-2-(4-fluorophenyl)-6,7,8,9-tetrahydropyrido[3,2-b]indolizin-5-yl)acetic acid], the IC50 came to 16 nM.
In the case of `CN([C@@H]1CCc2c(CC(=O)O)c3cccnc3n2C1)S(=O)(=O)c1ccc(F)cc1` [(R)-2-(8-(4-fluoro-N-methylphenylsulfonamido)-6,7,8,9-tetrahydropyrido[3,2-b]indolizin-5-yl)acetic acid], the IC50 turned out to be 7 nM.

Broadly, the IC50 is the concentration that gives 50% inhibition.
